pIC50: −log10 of the molar value. Calls of active or inactive are those of the source. No cut-off for these calls is given here.
Columns and labels:
[1] = system: MDA-MB-231; assay: Cytotoxicity against human MDA-MB-231 cells incubated for 24 hrs by CCK-8 reagent based spectrophotometric analysis; type: functional, cell-based; conditions: MDA-MB-231, 24 h
[2] = system: 4T1; assay: Cytotoxicity against mouse 4T1 cells incubated for 24 hrs by CCK-8 reagent based spectrophotometric analysis; type: functional, cell-based; conditions: 4T1, 24 h
[3] = system: U2OS; assay: Cytotoxicity against human U2OS cells incubated for 24 hrs by CCK-8 reagent based spectrophotometric analysis; type: functional, cell-based
[4] = system: Quadruplex DNA; assay: Stabilization of G-quadruplex telomeric DNA in human MDA-MB-231 cells assessed as increase in colocalization of BG4 and TRF2 formation foci at 3 uM incubated for 24 hrs by DAPI staining based immunofluorescence microscopic analysis; type: cell-based
[5] = system: Quadruplex DNA; assay: Stabilization of G-quadruplex telomeric DNA in human MDA-MB-231 cells assessed as increase in S9.6-positive cell nuclei at 3 uM incubated for 24 hrs by DAPI staining based immunofluorescence microscopic analysis
[6] = system: DNA; assay: Binding affinity to Mitochondrial DNA (unknown origin) assessed as increase in melting temperature by CD spectrophotometric analysis; type: nucleic-acid assay
[7] = system: MDA-MB-231; assay: Induction of DNA damage in human MDA-MB-231 cells assessed as increase in colocalization of TRF2 and gamma-H2AX formation foci in nucleus at 3 uM incubated for 24 hrs by DAPI staining based immunofluorescence analysis; type: functional, cell-based
[8] = system: MDA-MB-231; assay: Induction of DNA damage in human MDA-MB-231 cells assessed as increase in tail moment at 4 uM incubated for 24 hrs by electrophoresis assay; type: functional, cell-based
[9] = system: MDA-MB-231; assay: Induction of DNA damage in human MDA-MB-231 cells assessed as upregulation of gamma-H2AX expression at 1 to 4 uM incubated for 24 hrs by Western blot analysis; type: functional, cell-based; conditions: dose 1-4 µM
[10] = system: MDA-MB-231; assay: Induction of DNA damage in human MDA-MB-231 cells assessed as upregulation of CHK2 phosphorylation incubated for 24 hrs by Western blot analysis; type: functional, cell-based
[11] = system: MDA-MB-231; assay: Induction of DNA damage in human MDA-MB-231 cells assessed as upregulation of ATM phosphorylation at 4 uM by Western blot analysis; type: functional, cell-based; conditions: TDE = time-dependent effect
[12] = system: MDA-MB-231; assay: Induction of cell cycle arrest in human MDA-MB-231 cells assessed as accumulation of cells at G0/G1 phase at 4 uM incubated for 24 hrs by RNase/PI staining based flow cytometry (reference value: 82.3 %); type: functional
[13] = system: MDA-MB-231; assay: Induction of cell cycle arrest in human MDA-MB-231 cells assessed as accumulation of cells at S phase at 2 uM incubated for 24 hrs by RNase/PI staining based flow cytometry (reference value: 6.3 %); type: functional
[14] = system: MDA-MB-231; assay: Induction of cell cycle arrest in human MDA-MB-231 cells assessed as accumulation of cells at G2/M phase at 1 uM incubated for 24 hrs by RNase/PI staining based flow cytometry (reference value: 11.3 %); type: functional
[15] = system: MDA-MB-231; assay: Induction of cell cycle arrest in human MDA-MB-231 cells assessed as accumulation of cells at G2/M phase at 4 uM incubated for 24 hrs by RNase/PI staining based flow cytometry (reference value: 11.3 %); type: functional
[16] = system: MDA-MB-231; assay: Induction of cell cycle arrest in human MDA-MB-231 cells assessed as downregulation of Cyclin B1 expression at 1 to 4 uM incubated for 24 hrs by Western blot analysis; type: functional, cell-based; conditions: dose 1-4 µM
[17] = system: MDA-MB-231; assay: Induction of apoptosis in human MDA-MB-231 cells assessed as upregulation of cleaved caspase-3 expression at 1 to 4 uM incubated for 24 hrs by Western blot analysis; type: functional, cell-based; conditions: dose 1-4 µM
[18] = system: MDA-MB-231; assay: Inhibition of colony formation in human MDA-MB-231 cells at 0.25 uM incubated for 8 days by crystal violet staining based analysis; type: functional, cell-based; conditions: time 8.0 day
[19] = Drug uptake in human MDA-MB-231 cells assessed as increase in fluorescence intensity in tumor spheroid incubated for 24 hrs; type: ADME, cell-based; conditions: mda-mb-231, 24 h
[20] = system: MDA-MB-231; assay: Antiproliferative activity against human MDA-MB-231 cells assessed as reduction in tumor spheroid volume at 20 to 40 uM incubated for 7 days by propidium iodide staining based fluorescence analysis; type: functional, cell-based; conditions: dose 20-40 µM, time 7.0 day
[21] = system: MDA-MB-231; assay: Antiproliferative activity against human MDA-MB-231 cells assessed as reduction in tumor spheroid volume at 10 uM incubated for 7 days by propidium iodide staining based fluorescence analysis; type: functional, cell-based; conditions: time 7.0 day
[22] = system: MDA-MB-231; assay: Induction of immunogenic cell death in human MDA-MB-231 cells assessed as increase in CRT expression incubated for 24 hrs by Alexa Fluor 647 flow cytometric assay; type: functional, cell-based
[23] = system: MDA-MB-231; assay: Induction of immunogenic cell death in human MDA-MB-231 cells assessed as increase in HMGB1 release at 1 to 4 uM incubated for 24 hrs by ELISA; type: functional, cell-based; conditions: dose 1-4 µM
[24] = system: MDA-MB-231; assay: Induction of immunogenic cell death in human MDA-MB-231 cells assessed as increase in ATP release at 1 to 4 uM incubated for 24 hrs by ELISA; type: functional, cell-based; conditions: dose 1-4 µM
[25] = system: BMDC; assay: Induction of immunogenic cell death in BALB/c mouse BMDC cells co-cultured with mouse 4T1 cells assessed as increase in CD11c+ CD80+ CD86 cells maturation at 5 uM incubated for 24 hrs by flow cytometry (reference value: 69.4 %); type: functional
[26] = system: 4T1; assay: Antitumor activity against mouse 4T1 cells implanted in BALB/c mouse assessed as reduction in tumor volume at 10 mg/kg,ip every other day for 14 days; type: functional, organism-based; conditions: time 14.0 day
[27] = Toxicity in BALB/c mouse implanted with mouse 4T1 cells assessed as histopathological change in liver at 10 mg/kg,ip every other day for 14 days by hematoxylin and eosin staining analysis; type: organism-based; conditions: in vivo, 336 h, time 14 day
[28] = Toxicity in BALB/c mouse implanted with mouse 4T1 cells assessed as histopathological change in spleen at 10 mg/kg,ip every other day for 14 days by hematoxylin and eosin staining analysis; type: organism-based; conditions: in vivo, 336 h, time 14 day
[29] = system: 4T1; assay: Antitumor activity against mouse 4T1 cells implanted in BALB/c mouse assessed as upregulation of cleaved PARP expression in tumor at 10 mg/kg,ip every other day for 14 days by Western blot analysis; type: functional, organism-based; conditions: time 14.0 day
[30] = system: 4T1; assay: Antitumor activity against mouse 4T1 cells implanted in BALB/c mouse assessed as upregulation of cleaved caspase-3 expression in tumor at 10 mg/kg,ip every other day for 14 days by Western blot analysis; type: functional, organism-based; conditions: time 14.0 day
[31] = system: 4T1; assay: Antitumor immunity against mouse 4T1 cells implanted in BALB/c mouse assessed as increase in proportion of CD4+ T cells in spleen at 10 mg/kg,ip every other day for 14 days by flow cytometry; type: functional, organism-based; conditions: time 14.0 day
[32] = system: 4T1; assay: Antitumor immunity against mouse 4T1 cells implanted in BALB/c mouse assessed as increase in serum TNF-alpha level at 10 mg/kg,ip every other day for 14 days by ELISA; type: functional, organism-based; conditions: time 14.0 day
[33] = system: Quadruplex DNA; assay: Binding affinity to KRAS G-quadruplex telomeric DNA (unknown origin) assessed as […] by measuring melting temperature by FRET assay; type: nucleic-acid assay
[34] = system: MDA-MB-231; assay: Induction of DNA damage in human MDA-MB-231 cells assessed as increase in multi-nuclei frequency in aberrant cell at 4 uM incubated for 24 hrs by DAPI staining based microscopic analysis; type: functional

With CN(C)CCN(C)c1ccc(-c2nc3ccc(C(F)(F)F)cc3nc2-c2ccc(N(C)CCN(C)C)cc2)cc1 as the compound, how does the pIC50 [1] read?
Its pIC50 is 5.77.

What about the pIC50 [2] of the same compound?
Its pIC50 is 5.34.

What about the pIC50 [3] of the same compound?
Its pIC50 is 5.52.

What about the Activity [4] of the same compound?
The Activity was “Active”.

What about the Activity [5] of the same compound?
The Activity was “Active”.

What about the Activity [6] of the same compound?
The Activity was “Active”.

What about the Activity [7] of the same compound?
Its Activity is “Active”.

And the Activity [8]?
The Activity was “Active”.

What about the Activity [9] of the same compound?
The Activity was “Active”.

What about the Activity [10] of the same compound?
Its Activity is “Dose-Dependent Effect”.

What about the Activity [11] of the same compound?
Its Activity is “Tde”.

What about the Activity [12] of the same compound?
The Activity was 70.3%.

What about the Activity [13] of the same compound?
The Activity was 6.9%.

What about the Activity [14] of the same compound?
Its Activity is 11.4%.

And the Activity [15]?
The Activity was 20.9%.

And the Activity [16]?
Its Activity is “Active”.

What about the Activity [17] of the same compound?
The Activity was “Active”.

And the inhibition [18]?
The inhibition was “Active”.

And the Drug uptake [19]?
The Drug uptake was “Active”.

What about the Activity [20] of the same compound?
Its Activity is “Active”.

And the Activity [21]?
Its Activity is “inactive”.

What about the Activity [22] of the same compound?
Its Activity is “Dose-Dependent Effect”.

What about the Activity [23] of the same compound?
The Activity was “Active”.

What about the Activity [24] of the same compound?
The Activity was “Active”.

What about the Activity [25] of the same compound?
The Activity was 77.9%.

What about the Activity [26] of the same compound?
The Activity was “Active”.

What about the Activity [27] of the same compound?
Its Activity is “Non-Toxic”.

And the Activity [28]?
Its Activity is “Non-Toxic”.

What about the Activity [29] of the same compound?
The Activity was “Active”.

What about the Activity [30] of the same compound?
The Activity was “Active”.

What about the Activity [31] of the same compound?
Its Activity is “Active”.

And the Activity [32]?
Its Activity is “Active”.

What about the Activity [33] of the same compound?
Its Activity is “Active”.

What about the Activity [34] of the same compound?
The Activity was “Active”.
